Test results as given in patent US20240059685A1, “PIEZO1 AGONISTS FOR THE PROMOTION OF BONE FORMATION” (BIOVENTURES, LLC, priority 2019, published 2024).
“Also recorded” adds a separate entry of the source.

Legend:
Piezo1 [1] = target: T1, Piezo1 (Mus musculus, UniProt E2JF22); test: Activation of Piezo1 in MLO-Y4 cells, overall conclusion from gene expression and calcium influx; format: cell-based, murine
T1 construct: To identify Piezo1 stimulators, we treated MLO-Y4 cells with compounds; endogenous in cells; host or cells: MLO-Y4 (murine osteocyte-like cell line); control sh-Luc cells, with sh-Piezo1 knock-down cells as the specificity control
Protocol: (§1) To identify Piezo1 stimulators, we treated MLO-Y4 cells with compounds Yoda1, YW-3-159, W-3-163, W-3-168-1, W-3-168-2, W-3-170, W-3-173-1, W-3-173-2, and YW-3-174. Gene expression of Wnt1, Ptgs2, and Tnfrsf11b was measured to determine the activation of Piezo1. In addition, intracellular calcium concentration was measured to determine the activity of Piezo1 channel. […] Yoda1 was used as a positive control in all experiments.

Piezo1 [2] = target: T1, Piezo1; test: Intracellular calcium concentration (Fluo-8) in control or Piezo1 knock-down MLO-Y4 cells; format: cell-based, murine; conditions: for calcium influx / increase of intracellular calcium in Piezo1 knock-down cells: Piezo1 knock-down (sh-Piezo1) MLO-Y4 cells
Protocol: Calcium concentration measurement. For intracellular calcium concentration measurement under fluid flow condition, 1×10^5 MLO-Y4 cells were seeded in a μ-Slide I Luer (0.4 mm) fluid chamber slide (MIDI, Germany) overnight. One hour before initiating fluid flow, the culture medium was removed and 100 μl Hank's Buffer with Hepes (HHBS) containing 4μM Fluo-8 (Abcam, Cambridge, MA) was added to the culture, as described by the manufacturer. The cells were then cultured at 37° C. for 30 minutes. After additional incubation at room temperature for 30 minutes, the chamber slide was placed under a confocal microscope in order to record the intensity of fluorescence of MLO-Y4 cells. Fluorescence was recorded for 3 minutes before starting fluid flow using HHBS and then recorded for another 10 minutes. The increase of intracellular concentration was calculated by subtracting the initial mean fluorescence. For measuring intracellular calcium concentration in cells with Yoda1 treatment, we cultured 4,000 MLO-Y4 cells per well in a 96-well-plate. We preloaded the cells with Fluo-8 as described by the manufacturer and read the intensity of the fluorescence using a Victor X3 multi-label plate reader (Perkin Elmer, Waltham, MA) immediately after the treatment. We measured the fluorescence for 5 minutes at an interval of 20 seconds. The percentage of increase in intracellular calcium concentration was calculated as (Fx-F0)/F0.
as §1

femoral cortical bone = test: Ex vivo femoral cortical bone organ culture, qPCR; format: cell-based; conditions: cortical bone organ culture from 5-week-old mice, 10 μM, 4 hours, vs DMSO
Protocol: Femoral organ culture. Female mice at 5 weeks of age were euthanized in a CO2 chamber. Femurs were dissected and both ends were removed in a culture hood. Bone marrow was then flushed out using PBS and the periosteal surface was scraped to remove periosteal cells. Femoral shafts were then cultured in a 12-well-plate with 1 ml of α-MEM supplemented with 10% FBS and 1% penicillin/streptomycin/glutamine for 24 hours. We then treated femur shafts with 10 μM Yoda1 (Sigma, St. Louis, MO) or DMSO for 4 hours. Femur shafts were then collected for RNA isolation and qPCR analysis. Ex vivo femoral organ culture was repeated twice with three biological replicates.
Quantitative PCR. Organs and whole bones were harvested from animals, removed of soft tissues, and stored immediately in liquid nitrogen. We prepared osteocyte-enriched bone by removing the ends of femurs and tibias and then flushing the bone marrow with PBS. We then scraped the bone surface with a scalpel and froze them in liquid nitrogen for later RNA isolation, or decalcified them for genomic DNA isolation. We isolated total RNA using TRIzol (Life technologies, NY), according to the manufacturer's instructions and prepared cDNA using High Capacity first strand cDNA synthesis kit (Life Technologies). We performed quantitative RT-PCR using the following Taqman assays from Applied Biosystems: Piezo1 (Mm01241549_m1); Piezo2 (Mm01265861_m1); Ptgs2 (Mm00478374_m1); Cyr61 (Mm00487498_m1); Wnt1 (Mm01300-555_g1); Yap1 (Mm011432-63_m1); Taz (Mm01289583_m1); Tnfsf11 Mm00441906_m1; Tnfrsf11b (Mm00435452_m1); Sost (Mm00470479_m1); and ribosomal protein S2 (Mrps2) (Mm00475529_m1). We calculated relative mRNA amounts using the ΔCt method (Livak and Schmittgen, 2001). We isolated genomic DNA from decalcified cortical bone after digestion with proteinase K and phenol/chloroform extraction. We obtained two custom Taqman assays from Applied Biosystems for quantifying Piezo1 gene deletion efficiency: one specific for sequences between the loxP sites and the other specific for sequences downstream from the 3′ loxP site.

[3] = system: osteocyte-enriched cortical bone; test: Wnt1 expression in tibia after one Yoda1 injection; format: in vivo; conditions: 4-month-old female C57BL/6J mice, one injection 5 μmol/kg intraperitoneally, tibiae 4 hours later
Protocol: To quantify cancellous bone formation, we injected mice with calcein (20 mg/kg body weight) intraperitoneally 7 and 3 days before harvest. To quantify periosteal and endocortical bone formation, we injected mice with calcein (20 mg/kg body weight) and Alizarin Red (20 mg/kg body weight) 10 and 3 days before harvest. For gene expression, we injected Yoda1 into 4-month-old female C57BL/6J mice one time and harvested tibiae 4 hours later for RNA extraction. For bone mass evaluation, we injected Yoda1 into 4-month-old female C57BL/6J mice 5 consecutive days per week for 2 weeks (day 1-5 and day 8-12) and harvested the mice at day 15 for analysis. […]
Quantitative PCR. […] We performed quantitative RT-PCR using the following Taqman assays from Applied Biosystems: Piezo1 (Mm01241549_m1); Piezo2 (Mm01265861_m1); Ptgs2 (Mm00478374_m1); Cyr61 (Mm00487498_m1); Wnt1 (Mm01300-555_g1); Yap1 (Mm011432-63_m1); Taz (Mm01289583_m1); Tnfsf11 Mm00441906_m1; Tnfrsf11b (Mm00435452_m1); Sost (Mm00470479_m1); and ribosomal protein S2 (Mrps2) (Mm00475529_m1). We calculated relative mRNA amounts using the ΔCt method (Livak and Schmittgen, 2001). […] We obtained two custom Taqman assays from Applied Biosystems for quantifying Piezo1 gene deletion efficiency: one specific for sequences between the loxP sites and the other specific for sequences downstream from the 3′ loxP site.

T1 sequence (E2JF22 whole entry): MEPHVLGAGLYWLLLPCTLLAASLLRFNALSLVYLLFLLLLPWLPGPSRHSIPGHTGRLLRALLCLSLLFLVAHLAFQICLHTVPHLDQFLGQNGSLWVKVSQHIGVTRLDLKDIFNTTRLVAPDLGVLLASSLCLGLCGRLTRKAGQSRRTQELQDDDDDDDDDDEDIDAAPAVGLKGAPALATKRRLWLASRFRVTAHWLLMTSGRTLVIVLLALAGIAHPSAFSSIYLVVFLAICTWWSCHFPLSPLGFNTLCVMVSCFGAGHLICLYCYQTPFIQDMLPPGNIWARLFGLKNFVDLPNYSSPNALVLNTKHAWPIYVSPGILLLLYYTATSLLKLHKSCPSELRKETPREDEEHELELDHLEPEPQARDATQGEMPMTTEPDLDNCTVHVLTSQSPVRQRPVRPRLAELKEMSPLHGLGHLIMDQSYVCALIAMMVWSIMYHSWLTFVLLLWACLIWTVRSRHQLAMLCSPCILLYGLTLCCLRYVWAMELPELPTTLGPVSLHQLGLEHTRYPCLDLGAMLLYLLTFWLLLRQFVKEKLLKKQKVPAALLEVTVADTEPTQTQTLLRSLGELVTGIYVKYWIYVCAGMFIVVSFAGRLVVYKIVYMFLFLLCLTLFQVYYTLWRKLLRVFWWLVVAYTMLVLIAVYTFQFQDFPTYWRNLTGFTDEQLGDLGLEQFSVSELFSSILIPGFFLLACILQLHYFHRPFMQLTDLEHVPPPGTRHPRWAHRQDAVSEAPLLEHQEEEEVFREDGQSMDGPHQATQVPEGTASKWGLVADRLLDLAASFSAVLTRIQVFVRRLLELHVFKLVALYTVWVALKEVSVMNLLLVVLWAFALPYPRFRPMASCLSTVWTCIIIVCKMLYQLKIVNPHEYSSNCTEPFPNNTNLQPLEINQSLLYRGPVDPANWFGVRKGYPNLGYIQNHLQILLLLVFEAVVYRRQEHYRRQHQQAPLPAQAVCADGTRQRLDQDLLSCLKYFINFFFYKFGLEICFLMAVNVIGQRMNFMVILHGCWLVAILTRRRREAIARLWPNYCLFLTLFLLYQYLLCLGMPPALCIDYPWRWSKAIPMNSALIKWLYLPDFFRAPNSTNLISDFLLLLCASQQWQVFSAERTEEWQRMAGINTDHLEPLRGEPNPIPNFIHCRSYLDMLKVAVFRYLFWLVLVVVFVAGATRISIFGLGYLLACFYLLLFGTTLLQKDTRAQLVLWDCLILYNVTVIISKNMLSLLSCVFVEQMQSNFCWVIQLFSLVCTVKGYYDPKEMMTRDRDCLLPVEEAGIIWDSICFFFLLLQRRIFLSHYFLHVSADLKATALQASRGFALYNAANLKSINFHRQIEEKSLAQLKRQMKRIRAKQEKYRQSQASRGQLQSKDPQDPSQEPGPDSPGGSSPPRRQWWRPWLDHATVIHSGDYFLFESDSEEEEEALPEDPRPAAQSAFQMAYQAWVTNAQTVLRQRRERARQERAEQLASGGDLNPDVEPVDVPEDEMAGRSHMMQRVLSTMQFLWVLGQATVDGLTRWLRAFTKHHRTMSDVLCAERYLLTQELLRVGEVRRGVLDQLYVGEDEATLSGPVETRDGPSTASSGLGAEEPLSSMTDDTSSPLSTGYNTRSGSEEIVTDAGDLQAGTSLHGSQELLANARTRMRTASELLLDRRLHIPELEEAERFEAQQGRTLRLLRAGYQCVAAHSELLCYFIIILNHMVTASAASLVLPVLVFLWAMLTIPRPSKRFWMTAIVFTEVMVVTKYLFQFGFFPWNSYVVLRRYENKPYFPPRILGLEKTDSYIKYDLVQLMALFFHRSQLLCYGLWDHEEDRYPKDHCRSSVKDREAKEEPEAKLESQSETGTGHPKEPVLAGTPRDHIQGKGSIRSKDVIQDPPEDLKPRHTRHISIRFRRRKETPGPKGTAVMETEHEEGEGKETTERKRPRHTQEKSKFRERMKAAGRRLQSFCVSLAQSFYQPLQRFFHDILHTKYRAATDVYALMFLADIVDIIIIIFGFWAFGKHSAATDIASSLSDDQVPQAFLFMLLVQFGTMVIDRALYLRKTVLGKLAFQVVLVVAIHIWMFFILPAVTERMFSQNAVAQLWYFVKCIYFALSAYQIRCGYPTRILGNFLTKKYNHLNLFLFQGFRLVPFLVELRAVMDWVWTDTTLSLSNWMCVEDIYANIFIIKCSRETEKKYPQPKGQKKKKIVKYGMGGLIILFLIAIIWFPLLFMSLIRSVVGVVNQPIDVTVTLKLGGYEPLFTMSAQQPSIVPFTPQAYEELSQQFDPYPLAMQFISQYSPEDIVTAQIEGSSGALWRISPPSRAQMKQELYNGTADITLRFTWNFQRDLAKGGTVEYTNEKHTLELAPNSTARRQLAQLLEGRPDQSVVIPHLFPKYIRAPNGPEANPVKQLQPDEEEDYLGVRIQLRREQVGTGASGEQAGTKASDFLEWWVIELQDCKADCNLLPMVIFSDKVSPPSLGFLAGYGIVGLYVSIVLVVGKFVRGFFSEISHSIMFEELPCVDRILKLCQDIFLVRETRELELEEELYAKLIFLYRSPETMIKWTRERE

Compound	Piezo1 agonist activity (conclusion in words) (Piezo1 [1]; MLO-Y4 cells)	activity in activating Piezo1 compared to Yoda1 (Piezo1 [1]; MLO-Y4 cells in vitro)	calcium influx compared with Yoda1 (Piezo1 [2]; MLO-Y4 cells, 10 μM)	intracellular calcium concentration compared with Yoda1 (Piezo1 [2]; MLO-Y4 cells, at 2 μM, 5 μM, and 10 μM)	intracellular calcium concentration, dose dependence (Piezo1 [2]; MLO-Y4 cells, different doses)	calcium influx / increase of intracellular calcium in Piezo1 knock-down cells (Piezo1 [2]; 10 μM)	Cyr61 expression (femoral cortical bone)	Ptgs2 expression (femoral cortical bone)	Sost expression (femoral cortical bone)	Tnfrsf11b expression (femoral cortical bone)	Wnt1 expression (femoral cortical bone)	intracellular calcium concentration (Piezo1 [2]; MLO-Y4 cells, 10 μM, vs DMSO)	Wnt1 expression in osteocyte-enriched cortical bone in vivo [3]
Fc1ccc(Cl)c(CSc2nnc(-c3cnccn3)s2)c1Cl [YW-3-170]	potent agonists for Piezo1; also recorded: potent and specific Piezo1 agonists	comparable or superior activity	much more calcium influx than Yoda1	higher intracellular calcium concentration than Yoda1	dose-dependently	completely blocked; also recorded: loss of their ability to stimulate calcium influx	–	–	–	–	–	–	–
Clc1cccc(Cl)c1CSc1nnc(-c2cnccn2)s1 [Yoda1]	–	–	–	–	–	completely prevented; also recorded: completely blocked	promoted expression	promoted expression	decreased	promoted expression	promoted expression	increased	increased
